Experimental data from publication PMC8272913 (ACS chemical neuroscience, 2019).
Where two headings read alike, the source gives them in different places.

Columns and labels:
rat SERT (rSERT) = rat SERT (rSERT) (Rattus norvegicus, UniProt P31652); test: Inhibition of [3H]citalopram binding to rSERT from rat brain tissue; conditions: for Ki: read-out: Ki, binding affinity for rSERT; for fold decrease in rSERT binding affinity relative to paroxetine: vs paroxetine
hSERT = hSERT (Homo sapiens, UniProt P31645); format: binding
hSERT-A169D [1] = biological target: T1, hSERT-A169D (Homo sapiens, UniProt P31645, A169D); format: binding
hSERT WT [2] = biological target: T2, hSERT WT (Homo sapiens, UniProt P31645); format: cell-based; conditions: read-out: Ki (nM) 5-HT Transport WT
hSERT WT [3] = biological target: T2, hSERT WT; conditions: read-out: Ki (nM) RTI-55 Binding WT
hSERT-A169D [4] = biological target: T1, hSERT-A169D; format: cell-based

rat SERT (rSERT), sequence (P31652 whole entry): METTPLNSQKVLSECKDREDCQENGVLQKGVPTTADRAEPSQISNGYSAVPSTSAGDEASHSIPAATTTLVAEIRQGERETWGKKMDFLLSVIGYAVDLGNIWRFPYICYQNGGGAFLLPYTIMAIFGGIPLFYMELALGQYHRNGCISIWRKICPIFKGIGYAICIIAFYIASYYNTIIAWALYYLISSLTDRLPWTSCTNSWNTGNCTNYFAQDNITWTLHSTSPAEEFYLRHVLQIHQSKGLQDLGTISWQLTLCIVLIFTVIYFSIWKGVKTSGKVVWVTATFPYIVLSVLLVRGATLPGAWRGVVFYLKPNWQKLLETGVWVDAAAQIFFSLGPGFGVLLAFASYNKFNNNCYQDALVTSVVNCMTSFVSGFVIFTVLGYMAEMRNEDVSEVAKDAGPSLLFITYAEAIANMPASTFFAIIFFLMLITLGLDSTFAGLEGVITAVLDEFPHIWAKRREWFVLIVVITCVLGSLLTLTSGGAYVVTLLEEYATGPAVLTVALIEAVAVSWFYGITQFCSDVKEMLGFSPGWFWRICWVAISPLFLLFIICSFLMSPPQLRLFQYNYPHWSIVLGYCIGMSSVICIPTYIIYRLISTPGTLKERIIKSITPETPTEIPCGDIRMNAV

CCCCCCN1CCC(c2ccc(F)cc2)C(COc2ccc3c(c2)OCO3)C1 (centres unmarked) [compound 1]
Ki (rat SERT (rSERT)): 395 nM

CCCN1CCC(c2ccc(F)cc2)C(COc2ccc3c(c2)OCO3)C1 (centres unmarked) [compound 2]
Ki (rat SERT (rSERT)): 98 nM

Fc1ccc(C2CCN(Cc3ccc(Br)cc3)CC2COc2ccc3c(c2)OCO3)cc1 (centres unmarked) [compound 3]
Ki (rat SERT (rSERT)): 204 nM

O=C(Cc1ccc(Br)cc1)N1CCC(c2ccc(F)cc2)C(COc2ccc3c(c2)OCO3)C1 (centres unmarked) [compound 6]
Ki (rat SERT (rSERT)): 3820 nM

Brc1ccc([C@@H]2CCNC[C@H]2COc2ccc3c(c2)OCO3)cc1 [compound 13, 4-bromoparoxetine]
fold reduction in binding affinity as compared to paroxetine (hSERT): ~ 4 fold
Ki (hSERT; read-out: Ki, binding affinity): 0.32 ± 0.028 nM
Ki (rat SERT (rSERT)): 4.9 nM
fold decrease in rSERT binding affinity relative to paroxetine (rat SERT (rSERT)): 16 fold
RTI-55 Binding Sensitivity toward the A169D mutation (hSERT-A169D [1]; A169D versus WT): 1.6
Ki (hSERT-A169D [1]; read-out: Ki (nM) RTI-55 Binding A169D, hSERT A169D): 1.72 ± 0.39 nM
Ki (hSERT WT [2]): 2.3 ± 0.27 nM
Ki (hSERT WT [3]): 1.07 ± 0.3 nM
5-HT Transport Sensitivity toward the A169D mutation (hSERT-A169D [4]; A169D versus WT): 2.8
Ki (hSERT-A169D [4]; read-out: Ki (nM) 5-HT Transport A169D, hSERT A169D): 6.37 ± 0.74 nM

CN1CC[C@@H](c2ccc(F)cc2)[C@H](COc2ccc3c(c2)OCO3)C1 [compound 14]
Ki (rat SERT (rSERT)): 2.95 nM
fold decrease in rSERT binding affinity relative to paroxetine (rat SERT (rSERT)): 9.5 fold

c1ccc([C@@H]2CCNC[C@H]2COc2ccc3c(c2)OCO3)cc1 [compound 15, desfluoroparoxetine]
Ki (rat SERT (rSERT)): 0.557 nM
